# US20220298141A1, “ENZYME INHIBITORS” (KALVISTA PHARMACEUTICALS LIMITED, priority 2019, published 2022)
# Tests used:
# Human FXIa = target: T1, Human FXIa (Homo sapiens, UniProt P03951); assay: Determination of FXIa inhibitory activity in vitro (fluorogenic substrate Z-Gly-Pro-Arg-AFC); type: biochemical; conditions: Selectivity, Human FXIa (Enzyme Research Laboratories), 25° C.
# T1 construct: purchased Enzyme Research Laboratories
# Human Factor XIIa = target: T2, Human Factor XIIa (Homo sapiens, UniProt P00748); assay: Determination of Factor XIIa inhibitory activity in vitro (fluorogenic substrate H-DPro-Phe-Arg-AFC); type: biochemical; conditions: Human Factor XIIa (Enzyme Research Laboratories), 25° C., read-out: Human FXIIa IC50
# T2 construct: purchased Enzyme Research Laboratories
# T2 sequence (P00748 373-615 limits assumed): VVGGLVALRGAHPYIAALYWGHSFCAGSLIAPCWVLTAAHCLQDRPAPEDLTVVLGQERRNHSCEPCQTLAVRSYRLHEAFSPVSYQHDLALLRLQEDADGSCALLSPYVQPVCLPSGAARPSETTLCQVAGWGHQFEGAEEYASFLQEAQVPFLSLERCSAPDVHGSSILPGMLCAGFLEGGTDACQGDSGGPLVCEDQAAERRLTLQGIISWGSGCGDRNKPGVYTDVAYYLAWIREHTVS
# T2 sequence (P00748 20-372 partner limits assumed): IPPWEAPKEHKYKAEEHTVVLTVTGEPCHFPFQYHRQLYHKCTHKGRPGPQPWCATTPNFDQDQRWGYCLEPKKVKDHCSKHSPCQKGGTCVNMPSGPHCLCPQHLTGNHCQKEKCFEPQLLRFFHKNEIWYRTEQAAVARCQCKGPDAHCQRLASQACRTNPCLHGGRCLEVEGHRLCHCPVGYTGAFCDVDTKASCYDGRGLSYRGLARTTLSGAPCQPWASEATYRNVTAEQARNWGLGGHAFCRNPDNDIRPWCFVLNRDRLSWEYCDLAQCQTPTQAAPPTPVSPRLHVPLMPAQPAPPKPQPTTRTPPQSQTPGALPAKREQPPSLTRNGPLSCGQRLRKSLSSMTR
# Procedure, shortened: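 In vitro inhibition of human Factor XIIa (sourced from Enzyme Research Laboratories) was measured by incubating the enzyme at 25° C. with the fluorogenic substrate H-DPro-Phe-Arg-AFC across a range of test compound concentrations. The initial reaction rate, taken as residual enzyme activity, was followed by the […], and IC50 values were calculated.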
# T1 sequence (P03951 388-625 limits assumed): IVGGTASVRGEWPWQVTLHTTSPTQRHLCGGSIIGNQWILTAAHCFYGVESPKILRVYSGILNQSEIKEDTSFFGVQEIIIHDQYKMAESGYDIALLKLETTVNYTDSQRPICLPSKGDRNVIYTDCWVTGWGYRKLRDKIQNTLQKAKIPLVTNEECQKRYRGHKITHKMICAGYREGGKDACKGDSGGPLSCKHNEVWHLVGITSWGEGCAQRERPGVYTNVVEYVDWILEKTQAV
# T1 sequence (P03951 19-387 partner limits assumed): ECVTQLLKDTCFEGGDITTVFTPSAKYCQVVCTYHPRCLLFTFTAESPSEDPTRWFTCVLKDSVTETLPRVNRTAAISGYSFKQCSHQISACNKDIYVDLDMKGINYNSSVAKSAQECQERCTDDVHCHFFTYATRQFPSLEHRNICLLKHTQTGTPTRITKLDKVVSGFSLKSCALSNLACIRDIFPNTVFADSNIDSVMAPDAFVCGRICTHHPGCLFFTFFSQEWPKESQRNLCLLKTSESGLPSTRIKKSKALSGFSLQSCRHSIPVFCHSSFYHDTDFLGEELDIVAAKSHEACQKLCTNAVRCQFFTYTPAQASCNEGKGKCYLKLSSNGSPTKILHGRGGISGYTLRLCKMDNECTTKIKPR
IC50 (Human FXIa) [µM],IC50 (Human Factor XIIa) [µM],Compound
> 40,10 to 40,Nc1nccc2cc(CNC(=O)c3cc(Cl)cnc3NCC(=O)NC3CCCC3)ccc12 [Example 1.46]
> 40,1 to 3,CN1C(C)(C)CC(Nc2ncc(Cl)cc2C(=O)NCc2ccc3c(N)nccc3c2)CC1(C)C [Example 1.47]
> 40,1 to 3,CN1CCN(c2cc(CNc3ncc(Cl)cc3C(=O)NCc3ccc4c(N)nccc4c3)ccn2)CC1 [Example 1.48]
> 40,0.3 to 1,CC(C)N1CCC(CNc2ncc(Cl)cc2C(=O)NCc2ccc3c(N)nccc3c2)CC1 [Example 1.49]
> 40,0.3 to 1,"Nc1nccc2cc(CNC(=O)c3cc(Cl)cnc3NCC3CCN(C4CC4)CC3)ccc12 [Example 1.50, N-((1-aminoisoquinolin-6-yl)methyl)-5-chloro-2-(((1-cyclopropylpiperidin-4-yl)methyl)amino)nicotinamide]"
> 40,< 0.3,"CCN1CCC(CNc2ncc(Cl)cc2C(=O)NCc2ccc3c(N)nccc3c2)CC1 [Example 1.51, N-((1-aminoisoquinolin-6-yl)methyl)-5-chloro-2-(((1-ethylpiperidin-4-yl)methyl)amino)nicotinamide]"
> 40,0.3 to 1,Nc1nccc2cc(CNC(=O)c3cc(Cl)cnc3NCC3CCN(C4CCCC4)CC3)ccc12 [Example 1.53]
> 40,0.3 to 1,"COCCN1CCC(CNc2ncc(Cl)cc2C(=O)NCc2ccc3c(N)nccc3c2)CC1 [Example 1.54, N-((1-aminoisoquinolin-6-yl)methyl)-5-chloro-2-(((1-(2-methoxyethyl)piperidin-4-yl)methyl)amino)nicotinamide]"
> 40,0.3 to 1,CC(C)CN1CCC(CNc2ncc(Cl)cc2C(=O)NCc2ccc3c(N)nccc3c2)CC1 [Example 1.55]
> 40,0.3 to 1,Nc1nccc2cc(CNC(=O)c3cc(Cl)cnc3NCC3CCN(CC4CC4)CC3)ccc12 [Example 1.56]
> 40,3 to 10,Nc1nccc2cc(CNC(=O)c3cc(Cl)cnc3NCC3CCN(CC(F)(F)F)CC3)ccc12 [Example 1.57]
> 40,1 to 3,Nc1nccc2cc(CNC(=O)c3cc(Cl)cnc3NCC3CCN(C4CCOCC4)CC3)ccc12 [Example 1.58]
> 40,0.3 to 1,"Nc1nccc2cc(CNC(=O)c3cc(Cl)cnc3NCC3CCn4ccnc4C3)ccc12 (stereo not drawn) [Example 1.59, N-((1-aminoisoquinolin-6-yl)methyl)-5-chloro-2-(((5,6,7,8-tetrahydroimidazo[1,2-a]pyridin-7-yl)methyl)amino)nicotinamide]"
> 40,1 to 3,CN1CCC(Nc2ncc(Cl)cc2C(=O)NCc2ccc3c(N)nccc3c2)CC1 [Example 1.60]
> 40,3 to 10,CC(=O)N1CCC(CNc2ncc(Cl)cc2C(=O)NCc2ccc3c(N)nccc3c2)CC1 [Example 1.61]
> 40,3 to 10,CS(=O)(=O)N1CCC(CNc2ncc(Cl)cc2C(=O)NCc2ccc3c(N)nccc3c2)CC1 [Example 1.62]
> 40,0.3 to 1,"Nc1nccc2cc(CNC(=O)c3cc(Cl)cnc3NCC3CCN(Cc4cccnc4)CC3)ccc12 [Example 1.63, N-[(1-amino-6-isoquinolyl)methyl]-5-chloro-2-[[1-(3-pyridylmethyl)-4-piperidyl]methylamino]pyridine-3-carboxamide]"
> 40,0.3 to 1,"CC(C)N1CCCC(CNc2ncc(Cl)cc2C(=O)NCc2ccc3c(N)nccc3c2)C1 (stereo not drawn) [Example 1.64, N-[(1-amino-6-isoquinolyl)methyl]5-chloro-2-[(1-isopropyl-3-piperidyl)methylamino]pyridine-3-carboxamide]"
> 40,3 to 10,Nc1nccc2cc(CNC(=O)c3cc(Cl)cnc3NCC3CCN(Cc4cscn4)CC3)ccc12 [Example 1.65]
> 40,3 to 10,Nc1nccc2cc(CNC(=O)c3cc(Cl)cnc3NCC3CCN(Cc4nccs4)CC3)ccc12 [Example 1.66]
> 40,1 to 3,Cn1nccc1CN1CCC(CNc2ncc(Cl)cc2C(=O)NCc2ccc3c(N)nccc3c2)CC1 [Example 1.67]
> 40,0.3 to 1,Cn1cc(CN2CCC(CNc3ncc(Cl)cc3C(=O)NCc3ccc4c(N)nccc4c3)CC2)cn1 [Example 1.68]
> 40,3 to 10,CC(C)N1CCCC(C(=O)Nc2ncc(Cl)cc2C(=O)NCc2ccc3c(N)nccc3c2)C1 (stereo not drawn) [Example 1.69]
> 40,10 to 40,Nc1nccc2cc(CNC(=O)c3cc(Cl)cnc3NC[C@@H]3CCC(=O)N3)ccc12 [Example 1.70]

IC50 (Human FXIa) [µM],IC50 (Human Factor XIIa) [µM],Compound
> 40,0.3 to 1,CC(Nc1ncc(Cl)cc1C(=O)NCc1ccc2c(N)nccc2c1)C1CCN(C)CC1 (stereo not drawn) [Example 1.71]
3.16,10 to 40,"Nc1nccc2cc(CNC(=O)c3cc(Cl)cnc3NC[C@H]3CCC(=O)N3)ccc12 [Example 1.72, R—N-[(1-aminoisoquinoline-6-yl)methyl)-5-chloro-2-(((5-oxopyrrolidin-2-yl)methyl)amino)nicotinamide]"
> 40,1 to 3,"CN1CCC(CNc2ncccc2C(=O)NCc2ccc3c(N)nccc3c2)CC1 [Example 4.01, N-((1-aminoisoquinolin-6-yl)methyl)-2-(((1-methylpiperidin-4-yl)methyl)amino)nicotinamide]"
> 40,0.3 to 1,Cc1cnc(NCC2CCN(C)CC2)c(C(=O)NCc2ccc3c(N)nccc3c2)c1 [Example 4.02]
> 40,0.3 to 1,"CN1CCC(CNc2nccnc2C(=O)NCc2ccc3c(N)nccc3c2)CC1 [Example 4.03, N-((1-aminoisoquinolin-6-yl)methyl)-3-(((1-methylpiperidin-4-yl)methyl)amino)pyrazine-2-carboxamide]"
> 40,1 to 3,CN1CCC(CNc2cncc(C(=O)NCc3ccc4c(N)nccc4c3)n2)CC1 [Example 4.04]
> 40,3 to 10,CN1CCC(CNc2cnc(C(=O)NCc3ccc4c(N)nccc4c3)cn2)CC1 [Example 4.05]
> 40,1 to 3,COc1ccc(C(=O)NCc2ccc3c(N)nccc3c2)c(NCC2CCN(C)CC2)n1 [Example 4.06]
23.6,0.3 to 1,CN1CCC(CNc2nc(Cl)ccc2C(=O)NCc2ccc3c(N)nccc3c2)CC1 [Example 4.07]
> 40,10 to 40,CN1CCC(CNc2nccc(Cl)c2C(=O)NCc2ccc3c(N)nccc3c2)CC1 [Example 4.08]
> 40,< 0.3,CN1CCC(CNc2ncc(Br)cc2C(=O)NCc2ccc3c(N)nccc3c2)CC1 [Example 4.09]
> 40,0.3 to 1,CN1CCC(CNc2ncc(C3CC3)cc2C(=O)NCc2ccc3c(N)nccc3c2)CC1 [Example 4.10]
> 40,0.3 to 1,"CN1CCC(CNc2ncc(-c3cccnc3)cc2C(=O)NCc2ccc3c(N)nccc3c2)CC1 [Example 4.11, N-((1-aminoisoquinolin-6-yl)methyl)-6-(((1-methylpiperidin-4-yl)methyl)amino)-[3,3′-bipyridine]-5-carboxamide]"
> 40,1 to 3,COc1cnc(NCC2CCN(C)CC2)c(C(=O)NCc2ccc3c(N)nccc3c2)c1 [Example 4.12]
> 40,0.3 to 1,Cc1ccc(C(=O)NCc2ccc3c(N)nccc3c2)c(NCC2CCN(C)CC2)n1 [Example 4.13]
> 40,10 to 40,Cc1ccnc(NCC2CCN(C)CC2)c1C(=O)NCc1ccc2c(N)nccc2c1 [Example 4.14]
> 40,1 to 3,CN1CCC(CNc2nc(-c3ccccc3)ccc2C(=O)NCc2ccc3c(N)nccc3c2)CC1 [Example 4.15]
> 40,0.3 to 1,CN1CCC(CNc2nc(-c3cccnc3)ccc2C(=O)NCc2ccc3c(N)nccc3c2)CC1 [Example 4.16]
> 40,1 to 3,CN1CCC(CNc2nc(C3CC3)ccc2C(=O)NCc2ccc3c(N)nccc3c2)CC1 [Example 4.17]
23.3,0.3 to 1,CN1CCC(CNc2ncc(-c3ccccc3)nc2C(=O)NCc2ccc3c(N)nccc3c2)CC1 [Example 4.18]
> 40,< 0.3,CN1CCC(CNc2nc(Cl)c(Cl)cc2C(=O)NCc2ccc3c(N)nccc3c2)CC1 [Example 4.19]
12.7,0.3 to 1,CN1CCC(CNc2ncc(-c3cnn(C)c3)nc2C(=O)NCc2ccc3c(N)nccc3c2)CC1 [Example 4.20]
> 40,0.3 to 1,Cc1cc(C(=O)NCc2ccc3c(N)nccc3c2)c(NCC2CCN(C)CC2)nc1C [Example 4.21]

Compound,IC50 (Human FXIa) [µM],IC50 (Human Factor XIIa) [µM]
Nc1nccc2cc(CNC(=O)c3cc(Cl)cnc3NCC34CCN(CC3)CC4)ccc12 [Example 1.52],> 40,0.3 to 1
